Source: patent US7247634B2, “Rifamycin derivatives effective against drug-resistant microbes” (Cumbre Pharmaceuticals Inc., priority 2004, dated 2007)
≈ marks a conversion by molar mass, not a printed value.

Assays:
Format in all cases: cell-based
[1] = test system: Staphylococcus epidermidis ATCC12228; assay: MIC, microbroth dilution (NCCLS); details: rifS strain, Cation-Adjusted Mueller-Hinton Broth, 37° C., read-out: Antimicrobial activity (MIC)
[2] = test system: Staphylococcus aureus ATCC29213; assay: MIC, microbroth dilution (NCCLS); details: rifS strain, Cation-Adjusted Mueller-Hinton Broth, 37° C., read-out: Antimicrobial activity (MIC)
[3] = test system: Staphylococcus aureus ATCC29213 rpoB^D417Y; assay: microbe, parasite or virus in culture; details: ATCC29213, read-out: Antimicrobial activity (MIC)
Procedure: (§1) Representative compounds were assayed for antimicrobial activity as follows: Minimum Inhibitory Concentrations (“MICs”) were determined by the microbroth dilution method as per NCCLS guidelines (National Committee for Clinical Laboratory Standards. 2000. Methods for dilution antimicrobial susceptibility tests for bacteria that grow aerobically, 5th ed. M7-A5. National Committee for Clinical Laboratory Standards, Wayne, Pa.), except that all growth incubations were conducted at 37° C. Bacterial cultures were tested in the following bacteriological media: S. aureus, S. epidermidis, and E. coli in Cation-Adjusted Mueller-Hinton Broth, S. pneumoniae in THY Broth supplemented with 1 mg/mL catalase under 5% CO2 atmosphere, S. pyogenes in THY Broth, E. faecalis in BHI Broth, H. influenzae in BHI Broth supplemented with 0.75 μL of 1 mg/mL NAD and 150 μL of 1 mg/ml hematin per 5 mL, and M. smegmatis in Middlebrook Broth plus ADC Enrichment.
(§2) S. aureus ATCC 29213 RpoB^H418Y is a rifampin-resistant strain with a mutation in RNA polymerase, the biological target of rifamycin antibiotics. […] S. aureus EN1252a gyrA^S84L grlA^S80F is a quinolone-resistant strain due to double mutations to DNA gyrase and topoisomerase IV, the two biological targets for quinolone antibiotics.

[4] = test system: Staphylococcus aureus ATCC29213 rpoB^H418Y; assay: microbe, parasite or virus in culture; details: ATCC29213, read-out: Antimicrobial activity (MIC)
Procedure: as §1, §2

[5] = test system: Staphylococcus aureus EN1252a gyrA^S84L grlA^S80F; assay: microbe, parasite or virus in culture; details: read-out: Antimicrobial activity (MIC)
Procedure: as §1, §2

[6] = test system: Streptococcus pyogenes ATCC19615; assay: MIC, microbroth dilution (NCCLS); details: rifS strain, THY Broth, 37° C., read-out: Antimicrobial activity (MIC)
[7] = test system: Enterococcus faecalis ATCC29212; assay: MIC, microbroth dilution (NCCLS); details: rifS strain, BHI Broth, 37° C., read-out: Antimicrobial activity (MIC)
[8] = test system: Haemophilus influenzae ATCC10211; assay: MIC, microbroth dilution (NCCLS); details: rifS strain, BHI Broth with NAD and hematin, 37° C., read-out: Antimicrobial activity (MIC)
[9] = test system: Mycobacterium smegmatis ATCC700084; assay: MIC, microbroth dilution (NCCLS); details: Mycolicibacterium smegmatis, rifS strain, Middlebrook Broth plus ADC Enrichment, 37° C., read-out: Antimicrobial activity (MIC)
[10] = test system: Escherichia coli ATCC25922; assay: MIC, microbroth dilution (NCCLS); details: rifS strain, Cation-Adjusted Mueller-Hinton Broth, 37° C., read-out: Antimicrobial activity (MIC)
[11] = test system: Streptococcus pneumoniae ATCC6303; assay: MIC, microbroth dilution (NCCLS); details: rifS strain, THY Broth with 1 mg/mL catalase, 5% CO2, 37° C., read-out: Antimicrobial activity (MIC)

## COc1c(N2CCCC(NC(=O)C3CCN(C4=C5NC(=O)/C(C)=C\C=C\[C@H](C)[C@H](O)[C@@H](C)[C@@H](O)[C@@H](C)[C@H](OC(C)=O)[C@H](C)[C@@H](OC)/C=C/O[C@@]6(C)Oc7c(C)c(O)c(c(c7C6=O)C4=O)C5=O)CC3)C2)c(F)cc2c(=O)c(C(=O)O)cn(C3CC3)c12 (mixture of isomers) [Example 52]
[1]
  MIC: 0.008 to 0.063 µg/mL (≈ 0.00678 to 0.0534 µM)
[2]
  MIC: 0.004 to 0.5 µg/mL (≈ 0.00339 to 0.424 µM)
[3]
  MIC: 0.06 to 32 µg/mL (≈ 0.0508 to 27.1 µM)
[4]
  MIC: 0.06 to 16 µg/mL (≈ 0.0508 to 13.6 µM)
[5]
  MIC: 0.004 to 0.5 µg/mL (≈ 0.00339 to 0.424 µM)
[6]
  MIC: 0.008 to 0.063 µg/mL (≈ 0.00678 to 0.0534 µM)
[7]
  MIC: 2 to 32 µg/mL (≈ 1.69 to 27.1 µM)
[8]
  MIC: 0.125 to 2 µg/mL (≈ 0.106 to 1.69 µM)
[9]
  MIC: 0.5 to 64 µg/mL
[10]
  MIC: 0.125 to 8 µg/mL (≈ 0.106 to 6.78 µM)
[11]
  MIC: 0.008 to 0.125 µg/mL (≈ 0.00678 to 0.106 µM)

## CO[C@H]1/C=C/O[C@@]2(C)Oc3c(C)c(O)c4c(c3C2=O)C(=O)C(N2CCN(C3CCN(c5nc6c(cc5F)c(=O)c(C(=O)O)cn6-c5ccc(F)cc5F)C3)CC2)=C(NC(=O)/C(C)=C\C=C\[C@H](C)[C@H](O)[C@@H](C)[C@@H](O)[C@@H](C)[C@H](OC(C)=O)[C@@H]1C)C4=O (mixture of isomers) [Example 54]
[1]
  MIC: 0.008 to 0.063 µg/mL (≈ 0.00685 to 0.054 µM)
[2]
  MIC: 0.004 to 0.5 µg/mL (≈ 0.00343 to 0.428 µM)
[3]
  MIC: 0.06 to 32 µg/mL (≈ 0.0514 to 27.4 µM)
[4]
  MIC: 0.06 to 16 µg/mL (≈ 0.0514 to 13.7 µM)
[5]
  MIC: 0.004 to 0.5 µg/mL (≈ 0.00343 to 0.428 µM)
[6]
  MIC: 0.008 to 0.063 µg/mL (≈ 0.00685 to 0.054 µM)
[7]
  MIC: 2 to 32 µg/mL (≈ 1.71 to 27.4 µM)
[8]
  MIC: 0.125 to 2 µg/mL (≈ 0.107 to 1.71 µM)
[9]
  MIC: 0.5 to 64 µg/mL
[10]
  MIC: 0.125 to 8 µg/mL (≈ 0.107 to 6.85 µM)
[11]
  MIC: 0.008 to 0.125 µg/mL (≈ 0.00685 to 0.107 µM)

## COc1c(N2CCC(C3(N4CCN(C5=C6NC(=O)/C(C)=C\C=C\[C@H](C)[C@H](O)[C@@H](C)[C@@H](O)[C@@H](C)[C@H](OC(C)=O)[C@H](C)[C@@H](OC)/C=C/O[C@@]7(C)Oc8c(C)c(O)c(c(c8C7=O)C5=O)C6=O)CC4)CC3)C2)c(F)cc2c(=O)c(C(=O)O)cn(C3CC3)c12 (mixture of isomers) [Example 56, (R/S)-3-{4-[1-(3-Carboxy-1-cyclopropyl-6-fluoro-8-methoxy-4-oxo-1,4-dihydroquinoline-7-yl)-pyrrolidin-3-yl-cyclopropyl]-piperazin-1-yl}-rifamycin S]
[1]
  MIC: 0.008 to 0.063 µg/mL (≈ 0.00687 to 0.0541 µM)
[2]
  MIC: 0.004 to 0.5 µg/mL (≈ 0.00344 to 0.429 µM)
[3]
  MIC: 0.06 to 32 µg/mL (≈ 0.0515 to 27.5 µM)
[4]
  MIC: 0.06 to 16 µg/mL (≈ 0.0515 to 13.7 µM)
[5]
  MIC: 0.004 to 0.5 µg/mL (≈ 0.00344 to 0.429 µM)
[6]
  MIC: 0.008 to 0.063 µg/mL (≈ 0.00687 to 0.0541 µM)
[7]
  MIC: 2 to 32 µg/mL (≈ 1.72 to 27.5 µM)
[8]
  MIC: 0.125 to 2 µg/mL (≈ 0.107 to 1.72 µM)
[9]
  MIC: 0.5 to 64 µg/mL
[10]
  MIC: 0.125 to 8 µg/mL (≈ 0.107 to 6.87 µM)
[11]
  MIC: 0.008 to 0.125 µg/mL (≈ 0.00687 to 0.107 µM)

## CO[C@H]1/C=C/O[C@@]2(C)Oc3c(C)c(O)c4c(c3C2=O)C(=O)C(N2CCC(N(C)C3(C5CCN(c6nc7c(cc6F)c(=O)c(C(=O)O)cn7-c6ccc(F)cc6F)C5)CC3)CC2)=C(NC(=O)/C(C)=C\C=C\[C@H](C)[C@H](O)[C@@H](C)[C@@H](O)[C@@H](C)[C@H](OC(C)=O)[C@@H]1C)C4=O (mixture of isomers) [Example 58]
[1]
  MIC: 0.008 to 0.063 µg/mL (≈ 0.00648 to 0.051 µM)
[2]
  MIC: 0.004 to 0.5 µg/mL (≈ 0.00324 to 0.405 µM)
[3]
  MIC: 0.06 to 32 µg/mL (≈ 0.0486 to 25.9 µM)
[4]
  MIC: 0.06 to 16 µg/mL (≈ 0.0486 to 13 µM)
[5]
  MIC: 0.004 to 0.5 µg/mL (≈ 0.00324 to 0.405 µM)
[6]
  MIC: 0.008 to 0.063 µg/mL (≈ 0.00648 to 0.051 µM)
[7]
  MIC: 2 to 32 µg/mL (≈ 1.62 to 25.9 µM)
[8]
  MIC: 0.125 to 2 µg/mL (≈ 0.101 to 1.62 µM)
[9]
  MIC: 0.5 to 64 µg/mL
[10]
  MIC: 0.125 to 8 µg/mL (≈ 0.101 to 6.48 µM)
[11]
  MIC: 0.008 to 0.125 µg/mL (≈ 0.00648 to 0.101 µM)

## CON=C1CN(c2nc3c(cc2F)c(=O)c(C(=O)O)cn3C2CC2)CC1CNC1CCN(C2=C3NC(=O)/C(C)=C\C=C\[C@H](C)[C@H](O)[C@@H](C)[C@@H](O)[C@@H](C)[C@H](OC(C)=O)[C@H](C)[C@@H](OC)/C=C/O[C@@]4(C)Oc5c(C)c(O)c(c(c5C4=O)C2=O)C3=O)CC1 (mixture of isomers) [Example 59, (R/S)-3-{4-[1-(3-Carboxy-1-cyclopropyl-6-fluoro-4-oxo-1,4-dihydro-1-[1,8]naphthyridine-7-yl)-3-methoxyiminopyrrolidin-4-ylmethylamino]-piperidin-1-yl}rifamycin S]
[1]
  MIC: 0.008 to 0.063 µg/mL (≈ 0.00686 to 0.054 µM)
[2]
  MIC: 0.004 to 0.5 µg/mL (≈ 0.00343 to 0.429 µM)
[3]
  MIC: 0.06 to 32 µg/mL (≈ 0.0514 to 27.4 µM)
[4]
  MIC: 0.06 to 16 µg/mL (≈ 0.0514 to 13.7 µM)
[5]
  MIC: 0.004 to 0.5 µg/mL (≈ 0.00343 to 0.429 µM)
[6]
  MIC: 0.008 to 0.063 µg/mL (≈ 0.00686 to 0.054 µM)
[7]
  MIC: 2 to 32 µg/mL (≈ 1.71 to 27.4 µM)
[8]
  MIC: 0.125 to 2 µg/mL (≈ 0.107 to 1.71 µM)
[9]
  MIC: 0.5 to 64 µg/mL
[10]
  MIC: 0.125 to 8 µg/mL (≈ 0.107 to 6.86 µM)
[11]
  MIC: 0.008 to 0.125 µg/mL (≈ 0.00686 to 0.107 µM)

## CO[C@H]1/C=C/O[C@@]2(C)Oc3c(C)c(O)c4c(c3C2=O)C(=O)C(N2CCN(c3cc5c(cc3F)c(=O)c(C(=O)O)cn5C3CC3)CC2)=C(NC(=O)/C(C)=C\C=C\[C@H](C)[C@H](O)[C@@H](C)[C@@H](O)[C@@H](C)[C@H](OC(C)=O)[C@@H]1C)C4=O [Example 4, 3-[4-(3-Carboxy-1-cyclopropyl-6-fluoro-4-oxo-1,4-dihydroquinolin-7-yl)piperazin-1-yl]rifamycin S]
[1]
  MIC: 0.008 to 0.063 µg/mL (≈ 0.0078 to 0.0615 µM)
[2]
  MIC: 0.004 to 0.5 µg/mL (≈ 0.0039 to 0.488 µM)
[3]
  MIC: 0.06 to 32 µg/mL (≈ 0.0585 to 31.2 µM)
[4]
  MIC: 0.06 to 16 µg/mL (≈ 0.0585 to 15.6 µM)
[5]
  MIC: 0.004 to 0.5 µg/mL (≈ 0.0039 to 0.488 µM)
[6]
  MIC: 0.008 to 0.063 µg/mL (≈ 0.0078 to 0.0615 µM)
[7]
  MIC: 2 to 32 µg/mL (≈ 1.95 to 31.2 µM)
[8]
  MIC: 0.125 to 2 µg/mL (≈ 0.122 to 1.95 µM)
[9]
  MIC: 0.5 to 64 µg/mL
[10]
  MIC: 0.125 to 8 µg/mL (≈ 0.122 to 7.8 µM)
[11]
  MIC: 0.008 to 0.125 µg/mL (≈ 0.0078 to 0.122 µM)
